Like-named read-outs stand apart in the source and are kept apart here.
Key:
Assay type in all cases: cell-based
GSPT1 protein = molecular target: T1, GSPT1 protein (Homo sapiens, UniProt P15170); test: Degradation of GSPT1 protein in NB-4 cells (Western blot); conditions: for inhibition at 1 µM: read-out: GSPT1 degradation
T1 construct: The whole cell lysate was prepared using a RIPA lysis buffer; endogenous in cells; host or cells: NB-4 cells
Outline: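 NB-4 cells treated with compounds at 1 μM for 6 h at 37 °C, 5% CO2, with DMSO control. RIPA whole-cell lysates, BCA-normalized, were run on 4-20% SDS-PAGE and immunoblotted for GSPT1 protein.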

c-Myc = molecular target: T2, c-Myc (Homo sapiens, UniProt P01106); test: Degradation of c-MYC protein in HL-60 cells (Western blot); conditions: 4 h
T2 construct: The whole cell lysate was prepared using a RIPA lysis buffer; endogenous in cells; host or cells: HL-60 cells
Experimental: […] of DMSO and the compounds were added, and the mixture was incubated in an incubator at 5% CO2 and 37° C. for 4 h. The cells were centrifuged, and the culture medium was discarded. PBS was added for washing and then discarded. The whole cell lysate was prepared using a RIPA lysis buffer containing a protease inhibitor cocktail and a phosphatase inhibitor, and incubated on ice for 30 min. The mixture was centrifuged, and the cell debris was discarded. The whole cell lysate supernatant was collected and transferred to a fresh EP tube. Samples were prepared using a loading buffer after a BCA protein assay. The samples were incubated in a metal bath at 100° C. for 10 min. The samples were electrophoretically separated from proteins on a 4-20% precast gel (SDS-PAGE gel), transferred to a PVDF membrane, blocked with 5% NFDM/TBST for 1 h at room temperature, co-incubated overnight at 4° C. with the primary antibody, and co-incubated for 2 h at room temperature with the secondary antibody on the next day. The signals were detected on the […]™ imaging system.

NCI-H929 cells = test: Antiproliferative effect alone and in combination with dexamethasone against NCI-H929 cells; conditions: for IC50: Homo sapiens, NCI-H929, 72 h, 72 h
Experimental: (§1) MOLM-13 cells in the logarithmic growth phase were diluted in a medium RPMI+[…], and NCI-H929 cells were diluted in a medium RPMI+10% FBS. The cells were plated at 4,000 cells/well in 96-well whole black plates (WHB) with 50 μL/well. After plating, the plates were incubated in an incubator at 5% CO2 and 37° C. for 24 h before the compounds were added. The compounds were prepared into a 10 mM stock solution in DMSO and diluted in a culture medium to the desired concentrations (a final DMSO concentration of 0.2%). 50 μL of the compound dilutions at final concentrations of 10,000, 3,333.33, 1,111.11, 370.37, 123.46, 41.15, 13.72, 4.57, 1.52, and 0 nM were added to the 96-well plates containing the cells, that is, each compound was serially diluted to 10 concentrations in duplicate. The plates were incubated at 5% CO2 and 37° C. for 72 h. When pharmaceutical partners were used, the concentrations of azacitidine and dexamethasone were kept at 200 nM and 500 nM respectively, and the compounds were serially three-fold diluted from 10,000 nM. After the incubation was complete, the plates were equilibrated at room temperature for 30 min. CellTiter-Glo® Reagent (Promega G7573) was added at 100 μL/well. The plates were shaken for 12 min on a microplate shaker. The luminescence value was measured at room temperature by the GloMax navigator (Promega GM2010). The IC50 values were calculated using the GraphPad Prism 7 software with the 0 nM control group as 0% inhibition.

hERG potassium channel = molecular target: T3, hERG potassium channel (Homo sapiens, UniProt Q12809); test: hERG inhibition assay (automated patch clamp, HEK293); conditions: 3 μM, HEK293 cells, QPatch
T3 construct: expressed in transfected cells; host or cells: HEK293 cells
Description: The rapidly activating potassium channel encoded by human ether-a-go-go-related gene (hERG) is an important ion channel involved in the formation of cardiac action potential phase 3 repolarization. Blocking of the hERG channel by drugs can lead to the prolongation of cardiac repolarization and thus a prolonged QT interval in the electrocardiogram, known as long QT syndrome. Drug-induced delayed ventricular repolarization may in some cases trigger fatal arrhythmia-torsade de pointes-type ventricular tachycardia.
This assay was used to measure the effect of compounds on the hERG potassium channel clones expressed in human embryonic kidney (HEK293) cells. The assay procedures are as follows: the cells were transferred into a HEPES-buffered saline in glass-lined 96-well plates and exposed to an appropriate amount of test compound or control solution at various concentrations for 3 min. The test compounds were diluted in 0.3% DMSO.

MOLM-13 cells = test: Antiproliferative effect alone and in combination with azacitidine against MOLM-13 cells; conditions: MOLM-13 cells; for IC50: Homo sapiens, MOLM-13, 72 h, 72 h
Experimental: as §1

T1 sequence (P15170 whole entry): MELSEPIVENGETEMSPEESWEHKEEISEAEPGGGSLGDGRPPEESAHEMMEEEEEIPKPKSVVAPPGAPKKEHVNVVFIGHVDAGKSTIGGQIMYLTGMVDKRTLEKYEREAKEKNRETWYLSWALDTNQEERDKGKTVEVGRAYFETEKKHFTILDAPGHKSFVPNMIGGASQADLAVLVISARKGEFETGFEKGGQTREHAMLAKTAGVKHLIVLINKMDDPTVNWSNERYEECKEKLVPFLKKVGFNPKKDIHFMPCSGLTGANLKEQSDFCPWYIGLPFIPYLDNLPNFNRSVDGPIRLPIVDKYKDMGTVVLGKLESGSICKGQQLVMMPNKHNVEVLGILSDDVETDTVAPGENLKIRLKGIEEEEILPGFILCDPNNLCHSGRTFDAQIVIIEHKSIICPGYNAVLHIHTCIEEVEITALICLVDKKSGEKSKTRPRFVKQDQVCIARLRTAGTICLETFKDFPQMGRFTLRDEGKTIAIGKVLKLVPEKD
T2 sequence (P01106 whole entry): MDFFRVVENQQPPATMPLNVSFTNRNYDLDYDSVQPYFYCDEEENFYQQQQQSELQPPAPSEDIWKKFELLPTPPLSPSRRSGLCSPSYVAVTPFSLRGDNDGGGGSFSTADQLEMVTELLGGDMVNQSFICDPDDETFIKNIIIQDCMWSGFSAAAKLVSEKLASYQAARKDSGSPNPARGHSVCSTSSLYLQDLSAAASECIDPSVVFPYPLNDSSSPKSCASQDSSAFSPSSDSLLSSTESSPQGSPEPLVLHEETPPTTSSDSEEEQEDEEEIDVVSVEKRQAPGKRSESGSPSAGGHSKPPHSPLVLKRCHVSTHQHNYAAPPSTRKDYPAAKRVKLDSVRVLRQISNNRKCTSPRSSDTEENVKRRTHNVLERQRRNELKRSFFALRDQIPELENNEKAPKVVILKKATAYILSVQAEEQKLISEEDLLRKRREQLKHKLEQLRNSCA
T3 sequence (Q12809 whole entry): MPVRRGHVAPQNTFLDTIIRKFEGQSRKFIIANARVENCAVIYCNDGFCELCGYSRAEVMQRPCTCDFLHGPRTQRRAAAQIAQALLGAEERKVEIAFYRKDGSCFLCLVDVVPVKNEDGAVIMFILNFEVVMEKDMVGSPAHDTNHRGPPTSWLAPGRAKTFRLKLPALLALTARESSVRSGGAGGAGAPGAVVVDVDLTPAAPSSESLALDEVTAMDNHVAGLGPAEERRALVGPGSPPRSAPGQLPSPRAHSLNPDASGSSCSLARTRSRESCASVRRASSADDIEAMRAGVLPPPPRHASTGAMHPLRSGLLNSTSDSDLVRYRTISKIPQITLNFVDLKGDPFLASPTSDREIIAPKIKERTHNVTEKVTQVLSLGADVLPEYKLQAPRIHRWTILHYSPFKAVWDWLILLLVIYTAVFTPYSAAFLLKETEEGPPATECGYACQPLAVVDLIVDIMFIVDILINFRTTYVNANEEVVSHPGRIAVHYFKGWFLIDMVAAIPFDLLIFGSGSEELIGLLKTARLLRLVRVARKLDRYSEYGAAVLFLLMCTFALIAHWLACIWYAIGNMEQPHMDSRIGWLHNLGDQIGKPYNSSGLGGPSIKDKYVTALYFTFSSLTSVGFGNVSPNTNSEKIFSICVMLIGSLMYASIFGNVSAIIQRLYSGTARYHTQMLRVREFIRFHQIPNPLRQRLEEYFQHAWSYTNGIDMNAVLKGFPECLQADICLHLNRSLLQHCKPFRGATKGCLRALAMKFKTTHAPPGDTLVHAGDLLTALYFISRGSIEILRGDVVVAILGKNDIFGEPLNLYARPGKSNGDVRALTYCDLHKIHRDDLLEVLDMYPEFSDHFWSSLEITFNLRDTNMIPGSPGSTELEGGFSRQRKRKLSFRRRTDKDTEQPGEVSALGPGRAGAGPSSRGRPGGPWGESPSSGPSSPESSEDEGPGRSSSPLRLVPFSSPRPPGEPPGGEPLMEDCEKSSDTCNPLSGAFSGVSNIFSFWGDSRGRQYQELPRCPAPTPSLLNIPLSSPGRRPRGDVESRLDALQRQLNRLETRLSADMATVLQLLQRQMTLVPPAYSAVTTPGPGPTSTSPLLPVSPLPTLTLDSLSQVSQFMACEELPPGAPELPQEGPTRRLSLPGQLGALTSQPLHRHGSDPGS

Structure (SMILES)	inhibition at 1 µM (GSPT1 protein; NB-4, 6 h) [%]	degradation of GSPT1 protein (GSPT1 protein; co-incubated for 6 h with NB-4 cells) [%]	c-Myc degradation (c-Myc; 10 nM)	c-Myc degradation (c-Myc; 100 nM)	c-Myc degradation (c-Myc; 1000 nM)	increase of antiproliferative activity IC50 when combined with 500 nM dexamethasone (NCI-H929 cells)	IC50 (NCI-H929 cells; compound alone) [nM]	IC50 (NCI-H929 cells; in combination with 500 nM dexamethasone) [nM]	hERG inhibition rate (hERG potassium channel) [%]	inhibition at 1 µM (GSPT1 protein; NB-4 cells, compound 1 μM, 6 h) [%]	IC50 (MOLM-13 cells; compound alone) [nM]	IC50 (MOLM-13 cells; in combination with 200 nM azacitidine) [nM]	activity relative to CC-90009, alone or in combination with azacitidine (MOLM-13 cells)	increase of antiproliferative activity IC50 when combined with 200 nM azacitidine (MOLM-13 cells)
O=C1CCC(N2Cc3c(ccc(CNC(=O)c4ccc(Cl)cc4)c3F)C2=O)C(=O)N1 (stereo not drawn) [FDAB-48]	> 80	88	D (D denotes a percentage of degradation less than 25%)	D (D denotes a percentage of degradation less than 25%)	C (C denotes a percentage of degradation less than 500% but not less than 250%)	about 6 folds	14.3	2.45	25	–	–	–	–	–
Cc1ccc(C(=O)NCc2ccc3c(c2F)CN(C2CCC(=O)NC2=O)C3=O)c(F)c1 (stereo not drawn) [FDAB-121]	–	–	D (D denotes a percentage of degradation less than 25%)	D (D denotes a percentage of degradation less than 25%)	D (D denotes a percentage of degradation less than 25%)	–	–	–	9	> 80	248	9.68	about 5 folds	about 25 folds

Source: US20250282746A1, “HALOGEN-SUBSTITUTED ISOINDOLINE COMPOUND AND USE THEREOF” (CHENGDU FENDI PHARMACEUTICAL CO., LTD., priority 2022, published 2025)
